We go through 29 compounds from US8513289B2, “P38 kinase inhibiting agents” (Merck Sharp & Dohme Corp., priority 2009, dated 2013).

The target in one assay is T1, p38-α (Homo sapiens, UniProt Q16539).
T1 construct: purchased Millipore
Kind of assay: p38 kinase assay, p38-α with peptide substrate (Caliper LabChip). The format is biochemical. The note with it: read-out: IC50 p38a*peptide. Here is the method: Alternatively, p38 kinase assays were performed in a reaction volume of 70 µL in a 384-well plate, at 30° for […] under the following conditions: 50 mM Hepes, pH 7.4, 10 mM MgCl2, 1 mg/ml FA Free BSA, 1 mM DTT, 10 μM ATP, 10 μM p38 peptide [Caliper Life Sciences FL-Peptide 8 (5-FAM-IPTSPITTTYFFEKKK-COOH)] and 5.7 nM p38-α (Millipore), or 14.3 nM unactivated MAPKAP kinase-2, 0.18 nM p38-α (Millipore) and 2 uM RSK peptide [Caliper Life Sciences FL-Peptide 11 (5-FAM-KKLNRTLSVA-COOH)]. Serial dilutions of compounds were added to each reaction in 700 nL DMSO. 700 nL of DMSO was added to the control wells of the reaction plate as the no inhibitor control for each inhibitor titration. The reaction was terminated by the addition of 15 μL of a 100 mM EDTA. Product formation was analyzed using the Caliper LabChip 3000. The Separation buffer contained 100 mM HEPES pH 7.5, 0.015% Brij-35, 2.5% Coating Reagent #3 (Caliper Life Sciences) and 10 mM EDTA. Calculation of the substrate product ratios are performed using the HTS Well Analyzer software provided by Caliper Life Sciences and the percent inhibition at each compound concentration is determined.

In the next assay the test system is hWB. Kind of assay: IC50 hWB (TNF-α release assay). The assay is classed as cell-based. The note with it: Homo sapiens.

T1 sequence (Q16539 whole entry): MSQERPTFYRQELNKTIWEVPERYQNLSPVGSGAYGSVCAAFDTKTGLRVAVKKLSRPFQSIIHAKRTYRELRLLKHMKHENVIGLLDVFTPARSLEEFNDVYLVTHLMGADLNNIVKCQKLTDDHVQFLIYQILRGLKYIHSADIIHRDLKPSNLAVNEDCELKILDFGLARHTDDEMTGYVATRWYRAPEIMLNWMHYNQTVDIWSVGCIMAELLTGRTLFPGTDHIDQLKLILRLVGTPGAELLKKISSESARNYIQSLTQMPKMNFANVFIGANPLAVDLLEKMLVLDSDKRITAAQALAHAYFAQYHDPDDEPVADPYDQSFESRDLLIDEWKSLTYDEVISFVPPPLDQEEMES

Take `Cc1nnc(CNC(=O)c2cc(C(=O)c3c(F)cc(F)cc3F)c[nH]2)s1` [Example 1, N-[(5-methyl-1,3,4-thiadiazol-2-yl)methyl]-4-(2,4,6-trifluorobenzoyl)-1-H-pyrrole-2-carboxamide]: the values for the IC50 at p38-α and with hWB were 167 nM and 467 nM, respectively.
As to `CCCCc1nnc(CNC(=O)c2cc(C(=O)c3c(F)cc(F)cc3F)c[nH]2)s1` [Example 2, N-[(5-butyl-1,3,4-thiadiazol-2-yl)-methyl]-4-(2,4,6-trifluorobenzoyl)-1-H-pyrrole-2-carboxamide], the IC50 on p38-α turned out to be 441 nM; in the assay on hWB, 4220 nM.
For the compound `CC(C)c1nnc(CNC(=O)c2cc(C(=O)c3c(F)cc(F)cc3F)c[nH]2)s1` [Example 3, N-[(5-isopropyl-1,3,4-thiadiazol-2-yl)methyl]-4-(2,4,6-trifluorobenzoyl)-1-H-pyrrole-2-carboxamide], at p38-α, the half-inhibitory concentration (IC50) came out at 479 nM.
Consider `O=C(NCc1nnc(C2CC2)s1)c1cc(C(=O)c2c(F)cc(F)cc2F)c[nH]1` [Example 4, N-[(5-cyclopropyl-1,3,4-thiadiazol-2-yl)methyl]-4-(2,4,6-trifluorobenzoyl)-1H-pyrrole-2-carboxamide], for which the half-maximal inhibitory concentration (IC50) on p38-α worked out at 73 nM; in the assay with hWB, 330 nM.
For `CC(C)(C)c1nnc(CNC(=O)c2cc(C(=O)c3c(F)cc(F)cc3F)c[nH]2)s1` [Example 5, N-[(5-tert-butyl-1,3,4-thiadiazol-2-yl)methyl]-4-(2,4,6-trifluorobenzoyl)-1H-pyrrole-2-carboxamide], on p38-α, the IC50 came to 608 nM.
`O=C(NCc1nnc(C2CCCC2)s1)c1cc(C(=O)c2c(F)cc(F)cc2F)c[nH]1` [Example 6, N-[(5-cyclopentyl-1,3,4-thiadiazol-2-yl)methyl]-4-(2,4,6-trifluorobenzoyl)-1H-pyrrole-2-carboxamide]: the concentration for half-maximal inhibition (IC50) was 1510 nM at p38-α and 2870 nM in the assay with hWB.
The like results for `O=C(NCc1nnc(-c2ccccc2)s1)c1cc(C(=O)c2c(F)cc(F)cc2F)c[nH]1` [Example 7, N-[(5-phenyl-1,3,4-thiadiazol-2-yl)methyl]-4-(2,4,6-trifluorobenzoyl)-1H-pyrrole-2-carboxamide] were, in that order, 42 nM and 4350 nM.
The like results for `O=C(NCc1nnc(-c2ccc(F)cc2)s1)c1cc(C(=O)c2c(F)cc(F)cc2F)c[nH]1` [Example 8, N-{[5-(4-fluorophenyl)-1,3,4-thiadiazol-2-yl]methyl}-4-(2,4,6-trifluorobenzoyl)-1H-pyrrole-2-carboxamide] were, in that order, 50 nM and 1000 nM.
Turning to `O=C(NCc1nnc(-c2cccc(F)c2)s1)c1cc(C(=O)c2c(F)cc(F)cc2F)c[nH]1` [Example 9, N {[5-(3-fluorophenyl)-1,3,4-thiadiazol-2-yl]methyl}-4-(2,4,6-trifluorobenzoyl)-1H-pyrrole-2-carboxamide], the IC50 was determined as 462 nM on p38-α and 3490 nM with hWB.
For the compound `COc1ccc(-c2nnc(CNC(=O)c3cc(C(=O)c4c(F)cc(F)cc4F)c[nH]3)s2)cc1` [Example 10, N-{[5-(4-methoxyphenyl)-1,3,4-thiadiazol-2-yl]methyl}-4-(2,4,6-trifluorobenzoyl)-1H-pyrrole-2-carboxamide], on p38-α, the half-inhibitory concentration (IC50) was 31 nM.
For `O=C(NCc1nnc(-c2c(F)cccc2F)s1)c1cc(C(=O)c2c(F)cc(F)cc2F)c[nH]1` [Example 11, N-{[5-(2,6-difluorophenyl)-1,3,4-tbiadiazol-2-yl]methyl}-4-(2,4,6-trifluorobenzoyl)-1H-pyrrole-2-carboxamide], the IC50 on p38-α was determined as 276 nM; in the assay on hWB it was 2850 nM.
In the case of `O=C(NCc1nnc(-c2ccccn2)s1)c1cc(C(=O)c2c(F)cc(F)cc2F)c[nH]1` [Example 12, N-[(5-pyridin-2-yl-1,3,4-thiadiazol-2-yl)methyl]-4-(2,4,6-trifluorobenzoyl)-1H-pyrrole-2-carboxamide], the IC50 turned out to be 66 nM on p38-α and 570 nM with hWB.
With `CCOc1ncccc1-c1nnc(CNC(=O)c2cc(C(=O)c3c(F)cc(F)cc3F)c[nH]2)s1` [Example 16, N-{[5-(2-ethoxypyridin-3-yl)-1,3,4-thiadiazol-2-yl]methyl}-4-(2,4,6-trifluorobenzoyl)-1H-pyrrole-2-carboxamide], the IC50 at p38-α was found to be 135 nM.
On the same count and under the same terms, with `COc1cccc(-c2nnc(CNC(=O)c3cc(C(=O)c4c(F)cc(F)cc4F)c[nH]3)s2)n1` [Example 18, N-{[5-(6-methoxypyridin-2-yl)-1,3,4-thiadiazol-2-yl]methyl}-4-(2,4,6-trifluorobenzoyl)-1H-pyrrole-2-carboxamide] the figure was 94 nM; with `COc1cc(-c2nnc(CNC(=O)c3cc(C(=O)c4c(F)cc(F)cc4F)c[nH]3)s2)ccn1` [Example 19, N-{[5-(2-methoxypyridin-4-yl)-1,3,4-thiadiazol-2-yl]methyl}-4-(2,4,6-trifluorobenzoyl)-1H-pyrrole-2-carboxamide], 85 nM; with `O=C(NCc1nnc(C2CCC2)s1)c1cc(C(=O)c2c(F)cc(F)cc2F)c[nH]1` [Example 22, N-[(5-cyclobutyl-1,3,4-thiadiazol-2-yl)methyl]-4-(2,4,6-trifluorobenzoyl)-1H-pyrrole-2-carboxamide], 489 nM.
Same read-out and setting: with `CC1(c2nnc(CNC(=O)c3cc(C(=O)c4c(F)cc(F)cc4F)c[nH]3)s2)CC1` [Example 23, N-{[5-(1-methylcyclopropyl)-1,3,4-thiadiazol-2-yl]methyl}-4-(2,4,6-trifluorobenzoyl)-1H-pyrrole-2-carboxamide] the figure was 826 nM; with `CCC(C)c1nnc(CNC(=O)c2cc(C(=O)c3c(F)cc(F)cc3F)c[nH]2)s1` (centres unmarked) [Example 24, N-[(5-sec-butyl-1,3,4-thiadiazol-2-yl)methyl]-4-(2,4,6-trifluorobenzoyl)-1H-pyrrole-2-carboxamide], 1020 nM; with `O=C(NCc1nnc(-c2cc(C(F)(F)F)n[nH]2)s1)c1cc(C(=O)c2c(F)cc(F)cc2F)c[nH]1` [Example 27, 4-(2,4,6-trifluorobenzoyl)-N-({5-[3-(trifluoromethyl)-1H-pyrazol-5-yl]-1,3,4-thiadiazol-2-yl}methyl)-1H-pyrrole-2-carboxamide], 1400 nM.
The same measure, in the same setting: with `O=C(NCc1nnc(-c2csnn2)s1)c1cc(C(=O)c2c(F)cc(F)cc2F)c[nH]1` [Example 30, N-{[5-(1,2,3-thiadiazol-4-yl)-1,3,4-thiadiazol-2-yl]methyl}-4-(2,4,6-trifluorobenzoyl)-1H-pyrrole-2-carboxamide] the figure was 634 nM; with `O=C(NCc1nnc(-c2[nH]nc3c2CCC3)s1)c1cc(C(=O)c2c(F)cc(F)cc2F)c[nH]1` [Example 31, N-{[5-(2,4,5,6-tetrahydrocyclopenta[c]pyrazol-3-yl)-1,3,4-thiadiazol-2-yl]methyl}-4-(2,4,6-trifluorobenzoyl)-1H-pyrrole-2-carboxamide], 36 nM.
`Cc1cc(-c2nnc(CNC(=O)c3cc(C(=O)c4c(F)cc(F)cc4F)c[nH]3)s2)nn1C` [Example 33, N-{[5-(1,5-dimethyl-1H-pyrazol-3-yl)-1,3,4-thiadiazol-2-yl]methyl}-4-(2,4,6-trifluorobenzoyl)-1H-pyrrole-2-carboxamide]: on p38-α, the IC50 was found to be 35.1 nM.
Still for that read-out and setting: the value for `O=C(NCc1nnc(-c2cn[nH]n2)s1)c1cc(C(=O)c2c(F)cc(F)cc2F)c[nH]1` [Example 34, N-{[5-(2H-1,2,3-triazol-4-yl)-1,3,4-thiadiazol-2-yl]methyl}-4-(2,4,6-trifluorobenzoyl)-1,1-pyrrole-2-carboxamide] was 180 nM; that for `O=C(NCc1nnc(-c2ccc(=O)[nH]c2)s1)c1cc(C(=O)c2c(F)cc(F)cc2F)c[nH]1` [Example 36, N-{[5-(6-oxo-1,6-dihydropyridin-3-yl)-1,3,4-thiadiazol-2-yl]methyl}-4-(2,4,6-trifluorobenzoyl)-1H-pyrrole-2-carboxamide] was 70.4 nM; that for `O=C(NCc1nnc(-c2cccc(=O)[nH]2)s1)c1cc(C(=O)c2c(F)cc(F)cc2F)c[nH]1` [Example 37, N-{[5-(6-oxo-1,6-dihydropyridin-2-yl)-1,3,4-thiadiazol-2-yl]methyl}-4-(2,4,6-trifluorobenzoyl)-1H-pyrrole-2-carboxamide] was 173 nM.
Still for that read-out and setting: the value for `O=C(NCc1nnc(-c2cc[nH]c(=O)c2)s1)c1cc(C(=O)c2c(F)cc(F)cc2F)c[nH]1` [Example 38, N-{[5-(2-oxo-1,2-dihydropyridin-4-yl)-1,3,4-thiadiazol-2-yl]methyl}-4-(2,4,6-trifluorobenzoyl)-1H-pyrrole-2-carboxamide] was 26.9 nM; that for `Cc1nnc(CNC(=O)c2cc(C(=O)c3ccc(F)cc3F)c[nH]2)s1` [Example 39, 4-(2,4-difluorobenzoyl)-N-[(5-methyl-1,3,4-thiadiazol-2-yl)methyl]-1H-pyrrole-2-carboxamide] was 222 nM.
On the same count and under the same terms, the value for `Cc1nnc(CNC(=O)c2cc(C(=O)c3c(F)cccc3F)c[nH]2)s1` [Example 40, 4-(2,6-difluorobenzoyl)-N-[(5-methyl-1,3,4-thiadiazol-2-yl)methyl]-1H-pyrrole-2-carboxamide] was 150 nM; that for `O=C(NCc1nnc(-c2ccccn2)s1)c1cc(Cc2c(F)cc(F)cc2F)c[nH]1` [Example 44, N-[(5-pyridin-2-yl-1,3,4-thiadiazol-2-yl)methyl]-4-(2,4,6-trifluorobenzyl)-1H-pyrrole-2-carboxamide] was 555 nM.

One may read the IC50 as the concentration that inhibits the measured activity by half.
